Measured values reported in patent publication US20100310504A1, “METHODS FOR TREATING FIBROSIS BY MODULATING CELLULAR SENESCENCE” (priority 2007, published 2010).
Entries after “also recorded” stand apart in the source; their conditions may differ. Blank lines part the entries; values can stand above or below the compound they belong to.

What was measured:
[1] = system: liver; details: mouse, in vivo
[2] = system: senescent IMR-90 cells; experiment: In vitro killing assay of growing and senescent IMR-90 cells by YT cells (NK cell line); assay type: cell-based, human; details: range of target:effector cell ratios
Procedure: Tissue culture. Human IMR-90 foetal lung fibroblasts (ATCC) and primary human hepatic myofibroblasts (activated HSCs) (Dominion Pharmakine, Spain) were grown in standard conditions (Narita et al., 2003). Senescence was induced by prolonged culturing, etoposide (100 μM, Sigma, USA) treatment, or infection of IMR-90 cells with oncogenic rasV12 as described (Narita et al., 2003). For in vitro cytotoxicity assays, growing or senescent cells were plated in 6-well plates at 50,000 cells per well. 5×10^5 YT cells (from DSMZ, Germany) were subsequently added to target cells. The plates were incubated under normal conditions for 12 hours, and then NK cell cytotoxicity was determined using crystal violet staining of remaining adherent cells or followed with a Zeiss AxioObserver microscope equipped with 37° C. incubator hood and 6.3% CO2 cover.
To test if a Perforin mediated pathway is involved in senescent cell killing in vitro, the in vitro killing assays of growing and senescent IMR-90 cells were used (the assay is described at Krizhanovsky, V. et al., “Senescence of Activated Stellate Cells Limits Liver Fibrosis,” Cell, 134, 657-667 (Aug. 22, 2008), which is hereby incorporated by reference). Growing and senescent IMR-90 cells were incubated with different amounts of YT cells (NK cell line) in presence or absence of granule exocytosis pathway inhibitor Concanamycin A (CMA). […]

[3] = system: primary human activated HSCs; experiment: Senescence induction in cultured primary human activated HSCs; assay type: cell-based; details: etoposide 100 μM, within several days of treatment
[4] = system: senescent activated HSCs in fibrotic livers; experiment: Fibrosis reversion and senescent cell clearance in CCl4 treated mice with modified NK cell function; assay type: in vivo, mouse
Procedure: Animals. […] GFAP-tTA mice were obtained from the Jackson Laboratory.
Sections were counterstained with Eosin.
Immunoblotting. Liver tissue was lysed in Laemmli buffer using a tissue homogenizer. Equal amounts of protein were separated on 12% SDS-polyacrylamide gels and transferred to PVDF membranes. Detection was performed using anti-αSMA (DakoCytomation, Denmark), anti-13Actin (AC-15, Sigma, USA).
Expression array analysis and quantitative RT-PCR. […] Affymetrix Human Genome U133 Plus 2.0Array were used to identify genes expressed in HSC.
To determine whether NK cells can target senescent cells in vivo and their impact on liver fibrosis, modulating NK cell function was tested for how it would influence the frequency of senescent activated HSCs and fibrosis resolution in livers obtained from mice following a six week course of CCl4 or at various times after ceasing treatment. To deplete NK cells mice were treated with neutralizing antibodies [anti-AsialoGM1 (Radaeva et al., 2006; Xue et al., 2007)] during the period following CCl4 withdrawal. Conversely, to enhance the immune response, we treated mice with polyinosinic-polycytidylic acid (polyI:C), which induces interferon-γ and enhances NK cell activity in the liver (Radaeva et al., 2006).

[5] = wild type mice after six week CCl4, treated 10 or 20 days following CCl4 withdrawal, compared to saline controls

accumulation of senescent cells in livers of treated mice [1]: accumulated
Compound: 3,5-diethoxycarbonyl-1,4-dihydrocollidine [DDC]

Compound: ClC(Cl)(Cl)Cl [CCl4]
accumulation of senescent cells in livers of treated mice [1]: accumulated in fibrotic livers | increase in Sirius Red-positive area over untreated controls [1]: 3 to 4 fold | liver area Sirius Red-positive (quantitative laser scanning cytometry) [1]: Approximately 2%

Compound: C/C=C/[C@H]1O[C@@](O)([C@@H](C)[C@H](O)[C@H](C)[C@H]2OC(=O)/C(OC)=C/C(C)=C/[C@@H](C)[C@@H](O)[C@@H](CC)[C@@H](O)[C@H](C)C/C(C)=C/C=C/[C@@H]2OC)C[C@@H](O[C@H]2C[C@@H](O)[C@H](OC(N)=O)[C@@H](C)O2)[C@@H]1C [CMA, Concanamycin A]
preferential killing of senescent cells by NK cells (YT) in presence of inhibitor [2]: significantly inhibited

Compound: COc1cc([C@@H]2c3cc4c(cc3[C@@H](O[C@@H]3O[C@@H]5CO[C@@H](C)O[C@H]5[C@H](O)[C@H]3O)[C@H]3COC(=O)[C@H]23)OCO4)cc(OC)c1O [etoposide]
senescence of activated HSCs (proliferation stop, SA-β-gal activity, heterochromatic foci) [3]: undergo senescence

Compound: polyinosinic-polycytidylic acid [polyI:C]
αSMA mRNA and protein levels in fibrotic livers (activated HSC marker) ([4]; quantitative RT-PCR and immunoblot, 10 days treatment after CCl4, compared to saline): decreased | fibrosis / fibrotic tissue (Sirius Red staining) [4, 5]: less fibrotic tissue; also recorded: depleted more efficiently | senescent cells (SA-β-gal positive) in fibrotic liver [4, 5]: fewer senescent cells; also recorded: enhanced clearance of senescent cells
